Experimental data: publication PMC3804605, “Expression and Antimicrobial Function of Beta-Defensin 1 in the Lower Urinary Tract” (PLoS ONE, 2013)

System: UPEC strain UTI89
Assay: Microdilution bactericidal assay of recombinant antimicrobial peptides (CFU count, MIC)
Type: cell-based, Escherichia coli
Conditions: for bactericidal activity toward UPEC in vitro (in words): UTI89, recombinant peptide, microdilution assay; for minimum inhibition concentration (MIC), lowest peptide concentration inhibiting growth of 90% of the inoculum: UTI89 10^5 CFU, 0.3125-10 µM peptide in 50 µl 0.1X PBS, 3 hours at 37°C, then plated overnight on LB, CFU versus untreated bacteria
Method: Recombinant mBD-3 was synthesized in E. coli (5987-BD, R&D Systems, Minneapolis, MN). Recombinant mBD-14 was synthesized as a mature peptide in E. coli and purified as described. Antimicrobial activity of recombinant peptides was evaluated by microdilution assay. Briefly, UTI89 bacteria (10^5 CFU) were incubated with 0.3125, 0.625, 1.25, 2.5, 5, or 10 µM of mBD-3 or mBD-14 in 50 µl 0.1X PBS buffer for 3 hours at 37°C, then plated overnight on LB at 37°C. Next, the number of CFU at each concentration of peptide was determined. Using untreated bacteria as baseline, the minimum inhibition concentration (MIC) was identified by the lowest peptide concentration inhibiting growth of 90% of the inoculum as described previously. Sensitivity of the UTI89 bacterial strain to killing by antimicrobial peptides was verified with the use of recombinant human RNase 7, yielding MIC of 0.2-0.4 µM, consistent with published data[24].

Molecule | bactericidal activity toward UPEC in vitro (in words) | minimum inhibition concentration (MIC), lowest peptide concentration inhibiting growth of 90% of the inoculum [µM]
mBD-14: Recombinant mBD-14 synthesized as a mature peptide in E. coli and purified; protein encoded by Defb14 (FLPKTLRKFFCRIRGGRCAVLNCLGKEEQIGRCSNSGRKCCRKKK; UniProt Q7TNV9 23-67, looked up) | dose-dependent bactericidal activity | –
mBD-3: Recombinant mBD-3 synthesized in E. coli (5987-BD, R&D Systems); protein encoded by Defb3 (KKINNPVSCLRKGGRCWNRCIGNTRQIGSCGVPFLKCCKRK; UniProt Q9WTL0 23-63, looked up) | dose-dependent bactericidal activity | 1.25 to 2.5
RNase 7: Recombinant human RNase 7, used to verify sensitivity of UTI89 to killing by antimicrobial peptides (protein, UniProt Q9H1E1 29-156, looked up) Ribonuclease 7: KPKGMTSSQWFKIQHMQPSPQACNSAMKNINKHTKRCKDLNTFLHEPFSSVAATCQTPKIACKNGDKNCHQSHGAVSLTMCKLTSGKHPNCRYKEKRQNKSYVVACKPPQKKDSQQFHLVPVHLDRVL | – | 0.2 to 0.4
